Measurements from patent US6281342A, “Pradimicin compounds” (Bristol-Myers Squibb Company, priority 1994, dated 2001).
Values after ≈ are worked out from the molar mass of the structure shown. Where two headings read alike, the source gives them in different places.

Columns and labels:
[1] = system: Saccharomyces cerevisiae ATCC 9763; assay: MIC, two-fold agar dilution, S. cerevisiae ATCC 9763; assay type: cell-based; conditions: ATCC9763, YMA pH 7.0, 28° C., 40 hours
Procedure: (§1) Minimum inhibitory concentrations (MICs) of nine 4'-N-substituted pradimicin derivatives were determined by two-fold agar dilution method on phosphate-buffered yeast morphology agar (YMA, pH 7.0, Difco Laboratories). A 5-μl of fungal cell suspension containing 2×10^6 cells/ml (2×10^7 cells/ml for Trichophyton mentagrophytes) were spotted on the surface of the agar plates containing test compound. MICs were recorded after 40-hour incubation at 28° C. except for T. mentagrophytes, which required 60-hour incubation to produce visually evaluable growth on the drug-free control plates and were defined as the lowest antibiotic concentrations showing no growth or less than five discrete colonies per spot.
(§2) Medium: yeast morphology agar + 1/15 M phosphate buffer (pH 7.0)
(§3) Incubation conditions: 28° C., 40 hours (C. albicans ATCC 38247 & T.
(§4) Medium: Yeast morphology agar + 1/15 phosphate buffer (pH 7.0).

[2] = system: Candida albicans IAM 4888; assay: MIC, two-fold agar dilution, C. albicans IAM 4888; assay type: cell-based; conditions: IAM4888, YMA pH 7.0, 28° C., 40 hours
Procedure: as §1, §2, §3, §4

[3] = system: Candida albicans A9540; assay: MIC, two-fold agar dilution, C. albicans A9540; assay type: cell-based
Procedure: as §1, §2, §3, §4

[4] = system: Candida albicans ATCC 38247; assay: MIC, two-fold agar dilution, C. albicans ATCC 38247; assay type: cell-based; conditions: ATCC38247, YMA pH 7.0, 28° C., 60 hours (table footnote)
Procedure: as §1, §2, §3
(§5) mentagrophytes #4329: 28° C., 60 hours).
as §4

[5] = system: Candida albicans ATCC 32354; assay: MIC, two-fold agar dilution, C. albicans ATCC 32354; assay type: cell-based; conditions: ATCC32354, YMA pH 7.0, 28° C., 40 hours
Procedure: as §1, §2, §3, §4

[6] = system: Candida albicans 83-2-14; assay: MIC, two-fold agar dilution, C. albicans 83-2-14; assay type: cell-based; conditions: 83214, YMA pH 7.0, 28° C., 40 hours
Procedure: as §1, §2, §3, §4

[7] = system: Candida tropicalis 85-8; assay: MIC, two-fold agar dilution, C. tropicalis 85-8; assay type: cell-based; conditions: 858, YMA pH 7.0, 28° C., 40 hours
Procedure: as §1, §2, §3, §4

[8] = system: Candida tropicalis IFO 10241; assay: MIC, two-fold agar dilution, C. tropicalis IFO 10241; assay type: cell-based; conditions: IFO10241, YMA pH 7.0, 28° C., 40 hours
Procedure: as §1, §2, §3, §4

[9] = system: Cryptococcus neoformans D49; assay: MIC, two-fold agar dilution, C. neoformans D49; assay type: cell-based; conditions: YMA pH 7.0, 28° C., 40 hours
Procedure: as §1, §2, §3, §4

[10] = system: Cryptococcus neoformans IAM 4514; assay: MIC, two-fold agar dilution, C. neoformans IAM 4514; assay type: cell-based; conditions: IAM4514
Procedure: as §1, §2, §3, §4

[11] = system: Aspergillus fumigatus IAM 2034; assay: MIC, two-fold agar dilution, A. fumigatus IAM 2034; assay type: cell-based; conditions: IAM2034
Procedure: as §1, §2, §3, §4

[12] = system: Trichophyton mentagrophytes #4329; assay: MIC, two-fold agar dilution, T. mentagrophytes #4329; assay type: cell-based
Procedure: as §1, §2, §3, §5, §4

[13] = system: Candida albicans A9540; assay: animal or person; assay type: in vivo, male ICR mice infected with Candida albicans A9540
Procedure: (§6) The in vivo therapeutic efficacies of seven 4'-N-substituted pradimicin derivatives, KHM-1, KHM-2, KHM-3, KHM-4, KHM-5, KHM-6 and KHM-7 were evaluated in the mouse infected with Candida albicans A9540 and Aspergillus fumigatusIAM 2034. Groups of five specific-pathogen-free male ICR mice weighing 20-25 g at each dose level were intravenously infected with approximately 10 times the 50% lethal dose of C. albicans A9540 (1×10^6 cells/mouse) or A. fumigatus IAM 2034 (1×10^7 cells/mouse). Immediately after the fungal infection, test compounds dissolved with 10% DMSO in distilled water were intravenously given to the mouse at the dosed volume of 0.1 ml/10 g of body weight. […] Untreated control animals died 7 to 13 days post-infection.

[14] = system: Aspergillus fumigatus IAM 2034; assay: Therapeutic efficacy in Aspergillus fumigatus systemic infection in mice; assay type: in vivo, male ICR mice infected with Aspergillus fumigatus IAM 2034; conditions: IAM2034, 480 h; for responders at 6.3 mg/kg: 6.3 mg/kg iv; for responders at 6.3 mg/kg / responders at 12.5 mg/kg / responders at 25 mg/kg / responders at 50 mg/kg: 20th day post-infection, read-out: S/T (No. of survivors/tested) (converted); for responders at 12.5 mg/kg: 12.5 mg/kg iv; for responders at 25 mg/kg: 25 mg/kg iv; for responders at 50 mg/kg: 50 mg/kg iv
Procedure: as §6

[15] = Water solubility at neutral pH in PBS containing Ca^2+/Mg^2+; assay type: physicochemical; conditions: pbs with ca2+/mg2+; Table 3; water-solubility at neutral pH in phosphate buffered saline containing Ca^2+/Mg^2+
Procedure: The compounds of the invention have good water solubility. Typically, the water solubility is greater than 10 mg/ml when measured at neutral pH in PBS containing Ca^2+ /Mg^2+, preferably greater than 20 mg/ml.
^2) Water-solubility at neutral pH in phosphate buffered saline
containing Ca^2+ /Mg^2+.

[16] = Candida albicans A9540, YMA pH 7.0, 28° C., 40 hours, read-out: MIC
[17] = Table 3, Candida albicans A9540, YMA, read-out: MIC Ca-4
[18] = Cryptococcus neoformans IAM 4514, YMA pH 7.0, 28° C., 40 hours, read-out: MIC
[19] = Table 3, Cryptococcus neoformans IAM 4514, YMA, read-out: MIC Cn-2
[20] = Aspergillus fumigatus IAM 2034, YMA pH 7.0, 28° C., 40 hours, read-out: MIC
[21] = Table 3, Aspergillus fumigatus IAM 2034, YMA, read-out: MIC Af-3
[22] = Table 3, Trichophyton mentagrophytes #4329, YMA, read-out: MIC TM-4
[23] = Trichophyton mentagrophytes #4329, YMA pH 7.0, 28° C., 60 hours, read-out: MIC
[24] = Candida albicans, A9540, 480 h, Table 2, C. albicans, mice, iv, 95% confidence limits in parentheses, read-out: PD50 (50% protection dose)
[25] = Candida albicans, A9540, in Mus musculus, iv, 480 h, read-out: S/T (No. of survivors/tested)
[26] = Aspergillus fumigatus, A. fumigatus, mice
[27] = Aspergillus fumigatus, Table 2, A. fumigatus, mice, iv, 95% confidence limits in parentheses, read-out: PD50 (50% protection dose)
[28] = Candida albicans, A9540, 480 h, C. albicans, mice, 6.3 mg/kg iv, 20th day post-infection, read-out: S/T (No. of survivors/tested) (converted)
[29] = Candida albicans, A9540, 480 h, C. albicans, mice, 12.5 mg/kg iv, 20th day post-infection, read-out: S/T (No. of survivors/tested) (converted)
[30] = Candida albicans, A9540, 480 h, C. albicans, mice, 25 mg/kg iv, 20th day post-infection, read-out: S/T (No. of survivors/tested) (converted)
[31] = Candida albicans, A9540, 480 h, C. albicans, mice, 50 mg/kg iv, 20th day post-infection, read-out: S/T (No. of survivors/tested) (converted)

| Structure (SMILES) | MIC [1] | MIC [3, 16] | MIC [3, 17] | MIC [4] | MIC [5] | MIC [6] | MIC [7] | MIC [8] | MIC [9] | MIC [10, 18] | MIC [10, 19] | MIC [11, 20] | MIC [11, 21] | MIC [12, 22] | MIC [12, 23] | ED50 [13, 24] | responders at 6.3 mg/kg [14, 26] | responders at 12.5 mg/kg [14, 26] | responders at 25 mg/kg [14, 26] | solubility [15] | other results |
| --- | --- | --- | --- | --- | --- | --- | --- | --- | --- | --- | --- | --- | --- | --- | --- | --- | --- | --- | --- | --- | --- |
| COc1cc(O)c2c(c1)C(=O)c1c(cc3c(c1O)-c1c(cc(C)c(C(=O)N[C@H](C)C(=O)O)c1O)[C@H](O[C@@H]1O[C@H](C)[C@H](N(C)N=O)[C@H](O[C@@H]4OC[C@@H](O)[C@H](O)[C@H]4O)[C@H]1O)[C@H]3O)C2=O [KHM-6, 4'-N-Nitrosopradimicin A] | 3.1 µg/mL (≈ 3.56 µM) | 6.3 µg/mL (≈ 7.24 µM) | 6.3 µg/mL (≈ 7.24 µM) | 1.6 µg/mL (≈ 1.84 µM) | 3.1 µg/mL (≈ 3.56 µM) | 6.3 µg/mL (≈ 7.24 µM) | 12.5 µg/mL (≈ 14.4 µM) | 12.5 µg/mL (≈ 14.4 µM) | 1.6 µg/mL (≈ 1.84 µM) | 1.6 µg/mL (≈ 1.84 µM) | 1.6 µg/mL (≈ 1.84 µM) | 3.1 µg/mL (≈ 3.56 µM) | 3.1 µg/mL (≈ 3.56 µM) | 3.1 µg/mL (≈ 3.56 µM) | 3.1 µg/mL (≈ 3.56 µM) | 27 mg/kg | 0% | 40% | 0% | > 20000 µg/mL | MIC [2]: 6.3 µg/mL (≈ 7.24 µM); responders at 6.3 mg/kg [13, 25]: 0%; responders at 12.5 mg/kg [13, 25]: 20%; responders at 25 mg/kg [13, 25]: 20%; responders at 50 mg/kg [13, 25]: 80%; responders at 50 mg/kg [14, 26]: 40%; ED50 [14, 27]: > 50 mg/kg; ED50 ([14]; Table 3, Aspergillus fumigatus IAM 2034, iv, read-out: PD50 (mice) Af-3): > 50 mg/kg |
| CN[C@@H]1[C@H](O[C@@H]2OC[C@@H](O)[C@H](O)[C@H]2O)[C@@H](O)[C@H](O[C@H]2c3cc(C)c(C(=O)N[C@H](CO)C(=O)O)c(O)c3-c3c(cc4c(c3O)C(=O)c3cc(OC)cc(O)c3C4=O)[C@@H]2O)O[C@@H]1C [Pradimicin FA-1, reference compound] | 1.6 µg/mL (≈ 1.87 µM) | 6.3 µg/mL (≈ 7.35 µM) | 6.3 µg/mL (≈ 7.35 µM) | 1.6 µg/mL (≈ 1.87 µM) | 3.1 µg/mL (≈ 3.62 µM) | 6.3 µg/mL (≈ 7.35 µM) | 6.3 µg/mL (≈ 7.35 µM) | 6.3 µg/mL (≈ 7.35 µM) | 1.6 µg/mL (≈ 1.87 µM) | 0.8 µg/mL (≈ 0.934 µM) | 0.8 µg/mL (≈ 0.934 µM) | 1.6 µg/mL (≈ 1.87 µM) | 1.6 µg/mL (≈ 1.87 µM) | 1.6 µg/mL (≈ 1.87 µM) | 1.6 µg/mL (≈ 1.87 µM) | 18 mg/kg | 0% | 20% | 40% | 260 µg/mL (≈ 303 µM) | responders at 6.3 mg/kg [13, 28]: 0%; responders at 12.5 mg/kg [13, 29]: 20%; responders at 25 mg/kg [13, 30]: 80%; responders at 50 mg/kg [13, 31]: 100%; responders at 50 mg/kg [14, 26]: 80%; ED50 [14, 27]: 27 mg/kg |
| COc1cc(O)c2c(c1)C(=O)c1c(cc3c(c1O)-c1c(cc(C)c(C(=O)N[C@H](CO)C(=O)O)c1O)[C@H](O[C@@H]1O[C@H](C)[C@H](N)[C@H](O[C@@H]4OC[C@@H](O)[C@H](O)[C@H]4O)[C@H]1O)[C@H]3O)C2=O [Pradimicin FA-2, reference compound] | 1.6 µg/mL (≈ 1.9 µM) | 6.3 µg/mL (≈ 7.48 µM) | 6.3 µg/mL (≈ 7.48 µM) | 1.6 µg/mL (≈ 1.9 µM) | 3.1 µg/mL (≈ 3.68 µM) | 6.3 µg/mL (≈ 7.48 µM) | 6.3 µg/mL (≈ 7.48 µM) | 6.3 µg/mL (≈ 7.48 µM) | 1.6 µg/mL (≈ 1.9 µM) | 1.6 µg/mL (≈ 1.9 µM) | 1.6 µg/mL (≈ 1.9 µM) | 1.6 µg/mL (≈ 1.9 µM) | 1.6 µg/mL (≈ 1.9 µM) | 3.1 µg/mL (≈ 3.68 µM) | 3.1 µg/mL (≈ 3.68 µM) | 7.7 mg/kg | – | – | – | 20 µg/mL (≈ 23.7 µM) | ED50 ([13]; 480 h, Table 3, Candida albicans A9540, iv, read-out: PD50 (mice) Ca-4): 7.4 mg/kg; responders at 6.3 mg/kg [13, 28]: 40%; responders at 12.5 mg/kg [13, 29]: 80%; responders at 25 mg/kg [13, 30]: 100%; responders at 50 mg/kg [13, 31]: 100% |
